{
  "source": "patent US9320748B2",
  "about": "“Immunologically useful arginine salts” (Novartis AG, priority 2012, dated 2016)",
  "key": {"[1]": {"assay": "Photo-stability of bulk solid", "format": "physicochemical", "conditions": "irradiated 1.2 million lux-hours, 40° C., 36 hours", "description": "The L-arginine salt formed via the above method was tested for thermal- and photo-stability. For comparative purposes, the free base and the ammonium salt were also tested.\nThe bulk ammonium and arginine salts and the bulk free base of the compound of formula (I) were tested for photo-stability by being irradiated (1.2 million lux-hours), at 40° C. for a period of 36 hours."}, "[2]": {"assay": "Dynamic vapour sorption (DVS) water sorption", "format": "physicochemical", "conditions": "90% relative humidity", "description": "Dynamic vapour sorption (DVS) experiments were conducted on the L-arginine salt obtained via the above method. […] The free base is also shown for comparison (●). DSC analysis of the arginine salt following DVS treatment was also conducted and the results pre- (♦) and post-DVS (▪) treatment are shown in FIG. 4. The free base is also shown for comparison (●). […] No form change is noted by the XRPD."}, "[3]": {"assay": "Adsorption to aluminium hydroxide (RP-HPLC)", "format": "physicochemical", "conditions": "1 mg/ml on 3 mg/ml aluminium hydroxide", "description": "The adsorption efficiency of the compound was determined by RP-HPLC as being 99%."}, "[4]": {"assay": "Adsorption to aluminium phosphate adjuvant", "format": "physicochemical", "description": "Adsorption of a L-arginine salt of the compound of formula (I) to a commercially-available aluminium phosphate adjuvant yielded an adsorption efficiency of 97% (as found by recovering the compound of formula (I) on desorption). […] However, the adsorption remained >90% when the aluminium phosphate adjuvant was treated with 10 mM potassium phosphate.\nOne formulation was prepared with 0.4 mg/ml of the compound of formula (I) of the L-arginine salt and 3 mg/ml of aluminium phosphate (expressed as Al^3+ concentration), 10 mM of histidine buffer (pH 6.5). Aluminium phosphate was treated overnight with various concentrations of potassium phosphate (10 mM, 50 mM, 100 mM, 250 mM and 500 mM) before the compound of formula (I) of the arginine salt was incubated with the aluminium phosphate."}, "[5]": {"system": "respiratory syncytial virus (RSV)", "assay": "Anti-RSV titers after immunisation with trimeric F glycoprotein", "format": "in vivo, Balb/C mice", "conditions": "3 weeks after first dose; 1, 5, 50 μg SMIP adsorbed to Al—H, 3 μg F glycoprotein", "description": "Trimeric F glycoprotein (3 μg) of respiratory syncytial virus (RSV) is formulated with the compound of formula (I) as a free base or as the arginine salt (1 μg, 5 μg, 50 μg) adsorbed to Al—H. For comparison the IC31™ adjuvant is also tested. Balb/C mice (6 per group) are immunized at days 0 and 21 and immune responses are assessed."}, "[6]": {"assay": "Thermal-stability at physiological pH", "format": "physicochemical", "conditions": "for degradation (thermal-stability): physiological pH (7.4), 80° C., 7 days", "description": "The L-arginine salt formed via the above method was tested for thermal- and photo-stability. For comparative purposes, the free base and the ammonium salt were also tested. The bulk ammonium and arginine salts and the bulk free base of the compound of formula (I) were also tested for thermal-stability at physiological pH (7.4) by heating at 80° C. for 7 days. […] This renders the ammonium salt unsuitable for use in pharmaceutical formulation and long term storage."}, "[7]": {"assay": "Adsorption to calcium phosphate adjuvant", "format": "physicochemical", "conditions": "pH 6.4, no histidine buffer, 1.12 mg/ml Ca2+", "description": "Adsorption of a L-arginine salt of the compound of formula (I) to a commercially-available calcium phosphate adjuvant was studied at pH 6.4, without histidine buffer. Two formulations are prepared, both with 1.12 mg/ml Ca^2+ but with either 0.25 mg/ml or 0.125 mg/ml of the arginine salt. Adsorption was around 90% for both formulations."}, "[8]": {"assay": "Photo-stability in 50 mM phosphate buffer solution", "format": "physicochemical", "conditions": "50 mM phosphate buffer pH 6.8; irradiated 1.2 million lux-hours, 40° C., 36 hours", "description": "The L-arginine salt formed via the above method was tested for thermal- and photo-stability. For comparative purposes, the free base and the ammonium salt were also tested. The arginine salt and the bulk free base of the compound of formula (I) were also tested for photo-stability in a solution of 50 mM phosphate buffer (pH 6.8) by being irradiated (1.2 million lux-hours), at 40° C. for a period of 36 hours. […] The ammonium salt was not tested."}, "[9]": {"assay": "Effect of Al—H adsorption on serum peak and injection-site residence", "format": "in vivo", "conditions": "adsorbed on Al—H versus non-adsorbed; mice and rats", "text": "Adsorption of the compound of formula (I) on Al—H reduced its peak serum concentrations and increased residence times at sites of intramuscular injection, as found for mice and rats preclinical species. This contributes greatly on modifying and controlling the level of systemic exposure avoiding the potential problem of proinflammatory cytokines in the blood, improving safety and/or tolerability of the compounds of formula (I)."}, "in vivo": {"assay": "in vivo", "conditions": "mouse, im, 4 mg/kg", "description": "A single dose of two different formulations (one containing the free base and the other the L-arginine salt of the compound of formula (I)) adsorbed to Al—H in 10 mM histidine buffer and in the presence of 3 MenB antigens were administered intramuscularly to mice at a dose of 4 mg/kg."}},
  "note": "“And” between values parts separate entries of the source, which are not always exact repeats. Equal entries are not always repeated. Structures can show the parent of a compound that is named as a salt.",
  "data": [
    {"smiles": "Cc1cc(OCCOCCOCCP(=O)(O)O)ccc1CCc1cnc2c(N)nc3cc(CCC(=O)O)ccc3c2c1", "note": "[ammonium salt]", "values": [
      {"measurement": "degradation (photo-stability)", "setting": "[1]", "value": 4.6, "unit": "%"}
    ]},
    {"smiles": "Cc1cc(OCCOCCOCCP(=O)(O)O)ccc1CCc1cnc2c(N)nc3cc(CCC(=O)O)ccc3c2c1", "note": "[arginine salt, arginine salt of 3-(5-amino-2-(2-methyl-4-(2-(2-(2-phosphonoethoxyl)ethoxy)ethoxy)phenethyl)benzo[f][1,7]naphthyridin-8-yl)propanoic acid]", "values": [
      {"measurement": "water taken on (DVS)", "setting": "[2]", "value": "approximately 18%"},
      {"measurement": "water taken on (DVS)", "setting": "[2]; 4 g sample", "value": "approximately 13.71%"},
      {"measurement": "adsorption efficiency", "setting": "[3]", "value": 99, "unit": "%"},
      {"measurement": "% Adsorption", "setting": "[4]; aluminium phosphate pre-treated with 10 mM potassium phosphate, listed as L-arginine salt", "value": "93 ± 1", "unit": "%"},
      {"measurement": "% Adsorption", "setting": "[4]; aluminium phosphate pre-treated with 50 mM potassium phosphate", "value": "81.6 ± 0.1", "unit": "%"},
      {"measurement": "% Adsorption", "setting": "[4]; aluminium phosphate pre-treated with 100 mM potassium phosphate", "value": "60 ± 2", "unit": "%"},
      {"measurement": "% Adsorption", "setting": "[4]; aluminium phosphate pre-treated with 250 mM potassium phosphate", "value": "52 ± 0.1", "unit": "%"},
      {"measurement": "% Adsorption", "setting": "[4]; aluminium phosphate pre-treated with 500 mM potassium phosphate", "value": "65 ± 4", "unit": "%"},
      {"measurement": "% Adsorption", "setting": "[4]; aluminium phosphate, no potassium phosphate pre-treatment (0 mM), 0.4 mg/ml compound, 3 mg/ml Al3+, 10 mM histidine pH 6.5, listed as L-arginine salt", "value": "97% and 97 ± 1%"},
      {"measurement": "anti-RSV titers versus Al—H alone", "setting": "[5]", "value": "increased compared to Al—H alone"},
      {"measurement": "anti-RSV titers, arginine salt versus free base", "setting": "[5]", "value": "slightly higher titers than the free base"},
      {"measurement": "degradation (photo-stability)", "setting": "[1]", "value": 9.7, "unit": "%"},
      {"measurement": "stability at high temperatures, compared with other form", "setting": "[6]; high temperatures (80° C.), as in autoclaving", "value": "more stable than the ammonium salt"},
      {"measurement": "degradation (thermal-stability)", "setting": "[6]", "value": 0.1, "unit": "%"},
      {"measurement": "Adsorption", "setting": "[7]; 0.125 mg/ml arginine salt", "value": "around 90%"},
      {"measurement": "Adsorption", "setting": "[7]; 0.25 mg/ml arginine salt", "value": "around 90%"},
      {"measurement": "degradation (photo-stability in solution)", "setting": "[8]", "value": 9.8, "unit": "%"}
    ]},
    {"smiles": "Cc1cc(OCCOCCOCCP(=O)(O)O)ccc1CCc1cnc2c(N)nc3cc(CCC(=O)O)ccc3c2c1", "note": "[free base, 3-(5-amino-2-(2-methyl-4-(2-(2-(2-phosphonoethoxy)ethoxy)ethoxy)phenethyl)benzo[f][1,7]naphthyridin-8-yl)propanoic acid]", "values": [
      {"measurement": "peak serum concentrations", "setting": "[9]", "value": "reduced"},
      {"measurement": "residence times at sites of intramuscular injection", "setting": "[9]", "value": "increased"},
      {"measurement": "anti-RSV titers versus Al—H alone", "setting": "[5]", "value": "increased compared to Al—H alone"},
      {"measurement": "degradation (photo-stability)", "setting": "[1]", "value": 12.36, "unit": "%"},
      {"measurement": "degradation (thermal-stability)", "setting": "[6]", "value": 18.1, "unit": "%"},
      {"measurement": "AUC(0-t)", "setting": "in vivo", "value": 4.54, "unit": "µM·h"},
      {"measurement": "Cmax", "setting": "in vivo", "value": 453, "unit": "nM"},
      {"measurement": "Tmax", "setting": "in vivo", "value": 40.2, "unit": "min"},
      {"measurement": "half-life", "setting": "in vivo", "value": 509, "unit": "min"},
      {"measurement": "degradation (photo-stability in solution)", "setting": "[8]", "value": 23.1, "unit": "%"}
    ]}
  ]
}
